Here are results for 39 compounds from ChEMBL document CHEMBL4673300, “Fragment-Based Discovery of Novel Non-Hydroxamate LpxC Inhibitors with Antibacterial Activity” (J Med Chem, 2020).

pIC50: −log10 of the molar value. Values after ≈ are worked out from the molar mass of the structure shown. Active and inactive are the calls of the source. No cut-off for these calls is given here. Bounds are passed on as bounds.

The target of assay [1] is Matrix metalloproteinase-9 (Homo sapiens, UniProt P14780). Kind of assay: Inhibition of human MMP-9 by fluorometric assay.
The target of a further assay is Stromelysin-1 (Homo sapiens, UniProt P08254). In words: Inhibition of human MMP-3 by fluorometric assay.
Assay [2] has as its target 72 kDa type IV collagenase (Homo sapiens, UniProt P08253). Kind of assay: Inhibition of human MMP-2 by fluorometric assay.
Assay [3] has as its system Pseudomonas aeruginosa. Kind of assay: Antibacterial activity against Pseudomonas aeruginosa 5567 in presence of human serum albumin by CLSI method. The format is functional.
Assay [4] relates to Pseudomonas aeruginosa. Kind of assay: Antibacterial activity against Pseudomonas aeruginosa 5567 in absence of human serum albumin by CLSI method. The format is functional.
Another assay relates to Klebsiella pneumoniae. In words: Antibacterial activity against Klebsiella pneumoniae ATCC 13883 by CLSI method. The format is functional.
The test system of assay [5] is Pseudomonas aeruginosa. In words: Antibacterial activity against Pseudomonas aeruginosa ATCC 27853 by CLSI method. The format is functional.
The subject of assay [6] is Escherichia coli. In words: Antibacterial activity against Escherichia coli ATCC 25922 by CLSI method. The format is functional.
Assay [7] has as its target T1, UDP-3-O-acyl-N-acetylglucosamine deacetylase (Pseudomonas aeruginosa (strain ATCC 15692 / PAO1 / 1C / PRS 101 / LMG12228), UniProt P47205).
T1 sequence (P47205 whole entry): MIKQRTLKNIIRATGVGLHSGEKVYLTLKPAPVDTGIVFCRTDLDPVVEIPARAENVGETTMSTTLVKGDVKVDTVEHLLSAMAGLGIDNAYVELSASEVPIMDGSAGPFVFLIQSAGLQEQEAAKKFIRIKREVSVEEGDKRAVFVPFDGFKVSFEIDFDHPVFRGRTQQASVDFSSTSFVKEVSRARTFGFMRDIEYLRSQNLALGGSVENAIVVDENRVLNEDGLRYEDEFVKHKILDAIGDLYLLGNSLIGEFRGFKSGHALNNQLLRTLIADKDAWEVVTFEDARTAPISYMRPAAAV
Kind of assay: Inhibition of histidine-tagged Pseudomonas aeruginosa LpxC (1-303) expressed in Escherichia coli BL21 (DE3) using UDP-3-O-(R-3-hydroxydecanoyl)-N-acetylglucosamine as substrate measured after 60 mins by Fluorescence plate reader analysis.

The target in assay [8] is T1, UDP-3-O-acyl-N-acetylglucosamine deacetylase. In words: Displacement of (S)-N-(2-(N-(3-biphenyl-4-ylcarboxamido-4-(hydroxyamino)-4-oxobutyl)sulfamoyl)ethyl)-3',6'-dihydroxy-3-oxo-3H-spiro[isobenzofuran-1,9'-xanthene]-5-carboxamide fluorescent probe from histidine tagged Pseudomonas aeruginosa LpxC (1-303) expressed in Escherichia coli BL21 (DE3) preincubated for 30 mins followed by addition of fluorscein probe measured after 2 hrs by fluorescence ….

The target is the same in assay [9]. In words: Inhibition of histidine-tagged Pseudomonas aeruginosa LpxC (1-303) expressed in Escherichia coli BL21 (DE3) using UDP-3-O-(R-3-hydroxydecanoyl)-N-acetylglucosamine as substrate measured after 60 mins by LC-MS/MS analysis.
Assay [10] has as its system Pseudomonas aeruginosa. Kind of assay: Antibacterial activity against Pseudomonas aeruginosa ATCC 27853 in presence of efflux pump inhibitor phenylalanine-arginine beta-naphthylamide by CLSI method. The format is functional.
For assay [11], the system named is Escherichia coli. In words: Antibacterial activity against Escherichia coli ATCC 25922 in presence of efflux pump inhibitor phenylalanine-arginine beta-naphthylamideby CLSI method. The format is functional.

Sequence of Stromelysin-1 (P08254 whole entry): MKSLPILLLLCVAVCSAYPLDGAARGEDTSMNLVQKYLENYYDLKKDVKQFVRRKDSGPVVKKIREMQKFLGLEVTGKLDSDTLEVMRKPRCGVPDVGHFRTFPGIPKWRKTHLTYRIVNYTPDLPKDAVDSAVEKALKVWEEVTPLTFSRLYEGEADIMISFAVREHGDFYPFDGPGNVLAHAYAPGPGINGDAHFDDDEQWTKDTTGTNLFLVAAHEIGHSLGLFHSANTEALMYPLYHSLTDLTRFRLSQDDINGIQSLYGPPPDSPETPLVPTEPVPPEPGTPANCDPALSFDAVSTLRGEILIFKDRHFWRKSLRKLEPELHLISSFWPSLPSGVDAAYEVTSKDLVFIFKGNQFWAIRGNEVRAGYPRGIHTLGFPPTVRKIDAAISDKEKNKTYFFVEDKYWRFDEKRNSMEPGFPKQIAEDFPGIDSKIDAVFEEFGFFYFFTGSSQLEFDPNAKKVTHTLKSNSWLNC
Sequence of Matrix metalloproteinase-9 (P14780 whole entry): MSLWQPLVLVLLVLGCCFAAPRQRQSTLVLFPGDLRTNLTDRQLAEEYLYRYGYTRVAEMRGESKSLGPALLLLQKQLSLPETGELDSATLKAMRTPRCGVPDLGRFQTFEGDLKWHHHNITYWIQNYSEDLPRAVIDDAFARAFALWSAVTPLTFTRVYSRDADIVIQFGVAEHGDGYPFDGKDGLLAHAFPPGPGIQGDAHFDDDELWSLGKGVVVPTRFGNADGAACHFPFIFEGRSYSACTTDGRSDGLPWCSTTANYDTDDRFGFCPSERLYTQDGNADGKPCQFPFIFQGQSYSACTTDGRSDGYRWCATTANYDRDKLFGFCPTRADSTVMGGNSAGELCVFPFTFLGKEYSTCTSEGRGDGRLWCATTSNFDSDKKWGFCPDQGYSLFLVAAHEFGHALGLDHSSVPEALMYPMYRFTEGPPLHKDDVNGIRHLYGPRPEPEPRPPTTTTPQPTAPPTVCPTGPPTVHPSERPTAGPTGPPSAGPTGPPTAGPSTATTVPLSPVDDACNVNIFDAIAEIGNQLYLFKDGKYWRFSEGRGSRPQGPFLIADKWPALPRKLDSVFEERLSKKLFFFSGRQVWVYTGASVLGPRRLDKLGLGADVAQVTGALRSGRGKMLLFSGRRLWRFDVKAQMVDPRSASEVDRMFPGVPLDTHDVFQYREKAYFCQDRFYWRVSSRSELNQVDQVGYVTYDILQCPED
Sequence of 72 kDa type IV collagenase (P08253 whole entry): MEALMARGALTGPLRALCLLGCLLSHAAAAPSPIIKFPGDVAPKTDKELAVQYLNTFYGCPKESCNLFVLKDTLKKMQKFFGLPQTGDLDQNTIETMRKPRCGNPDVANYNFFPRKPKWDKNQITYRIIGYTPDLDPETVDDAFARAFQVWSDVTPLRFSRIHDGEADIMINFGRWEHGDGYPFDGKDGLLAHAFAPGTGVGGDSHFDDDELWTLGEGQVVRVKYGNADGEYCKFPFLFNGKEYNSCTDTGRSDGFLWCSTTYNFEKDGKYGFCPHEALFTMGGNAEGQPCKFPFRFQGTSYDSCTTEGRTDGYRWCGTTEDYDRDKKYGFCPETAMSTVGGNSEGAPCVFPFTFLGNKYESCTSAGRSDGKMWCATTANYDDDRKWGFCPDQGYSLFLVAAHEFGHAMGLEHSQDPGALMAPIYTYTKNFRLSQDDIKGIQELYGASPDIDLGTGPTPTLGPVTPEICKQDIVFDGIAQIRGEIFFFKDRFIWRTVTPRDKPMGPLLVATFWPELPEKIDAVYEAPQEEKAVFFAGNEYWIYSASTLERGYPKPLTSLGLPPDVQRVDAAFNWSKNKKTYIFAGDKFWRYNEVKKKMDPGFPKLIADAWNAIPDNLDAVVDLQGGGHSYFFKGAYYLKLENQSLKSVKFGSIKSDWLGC

Regarding `C[C@H](O)c1nccn1Cc1cc(C#Cc2ccc(OCC(N)(CO)CO)cc2)on1`, the pIC50 was less than 4.00 in [1], less than 4.00 at Stromelysin-1, less than 4.00 in [2] and 7.70 in assay [7]. In addition, the MIC in the assay with Pseudomonas aeruginosa [3] amounted to 8 µg/mL; against Pseudomonas aeruginosa [4], 4 µg/mL (≈ 9.7 µM); with Klebsiella pneumoniae, 64 µg/mL (≈ 155 µM); with Pseudomonas aeruginosa [5], 4 µg/mL (≈ 9.7 µM); against Escherichia coli [6], 16 µg/mL (≈ 38.8 µM).

For `Clc1ccc(CCn2ccnc2)cc1`, the pIC50 in assay [8] is 2.56.

As to `CC(O)c1nccn1CCc1ccc(C#Cc2ccccc2)cc1` (racemic), the pIC50 in [7] is 5.62; in assay [8], 5.75.

For the compound `Clc1ccc(CCCn2ccnc2)cc1`, the pIC50 is 3.95 in assay [7] and 3.90 in [8].

As to `N[C@H](CO)C(=O)N1CCC(Cc2ccc(C#Cc3ccccc3)cc2)CC1`, the pIC50 in assay [9] is 7.47.

Regarding `N[C@H](CO)C(=O)N1CCC(Cc2ccc(C#Cc3ccc(CO)cc3)cc2)CC1`, the minimal inhibitory concentration (MIC) against Pseudomonas aeruginosa [5] was more than 32 µg/mL; in the assay on Pseudomonas aeruginosa [10] it was 32 µg/mL; against Escherichia coli [6], more than 32 µg/mL; in the assay on Escherichia coli [11], 16 µg/mL. The compound also had a pIC50 in assay [9] of 7.66.

As to `CC(O)c1nccn1Cc1cc(C#Cc2ccc(CCCO)cc2)on1` (racemic), the MIC was more than 128 µg/mL in the assay with Pseudomonas aeruginosa [3]; 32 µg/mL (≈ 91.1 µM) against Pseudomonas aeruginosa [4]; 4 µg/mL (≈ 11.4 µM) in the assay with Klebsiella pneumoniae; 64 µg/mL (≈ 182 µM) in the assay with Pseudomonas aeruginosa [5]; 2 µg/mL (≈ 5.69 µM) in the assay on Escherichia coli [6]. The compound also had a pIC50 in assay [7] of 8.05.

`Clc1ccc(CCCCn2ccnc2)cc1`: the pIC50 in assay [7] is 4.22; in assay [8] it was 4.36.

`CC(O)c1nccn1CCc1ccc(-c2ccccc2)cc1` (racemic): the negative logarithm of the IC50 (pIC50) was 4.98 in assay [7] and 5.19 in [8].

Take `CC(O)c1nccn1Cc1ccc(C#Cc2ccccc2)cc1` (racemic): in the assay with Escherichia coli [11], the outcome was inactive. For the same compound, the pIC50 in [7] was 6.25; in assay [8] it was 7.03.

Consider `CS(=O)(=O)C[C@H](O)[C@@H](N)C(=O)N1CCC(Cc2ccc(C#Cc3ccc(CO)cc3)cc2)CC1` (racemic), for which the pIC50 (in assay [1]; against Stromelysin-1; in assay [2]) was less than 4.00 throughout. Moreover, the MIC in the assay on Pseudomonas aeruginosa [5] turned out to be 64 µg/mL (≈ 132 µM); with Pseudomonas aeruginosa [10], 8 µg/mL; against Escherichia coli [6] it was 64 µg/mL (≈ 132 µM); in the assay with Escherichia coli [11], 1 µg/mL.

On to `CNC(=O)[C@H](Cc1c[nH]c2ccccc12)NC(=O)[C@@H](CC(=O)NO)CC(C)C` [ILOMASTAT], for which the pIC50 against Stromelysin-1 is 7.82.

For `CS(=O)(=O)NC[C@@H](N)C(=O)Nc1cccc(OC(F)(F)F)c1`, the figures for the pIC50 in [9] and in assay [8] were 4.36 and 4.42, respectively.

`CS(=O)(=O)C[C@@H](N)C(=O)Nc1cccc(OC(F)(F)F)c1`: the pIC50 in assay [9] and in assay [8] was less than 4.00 in each case.

With `C[C@@H](O)c1nccn1Cc1cc(C#Cc2ccc(CCCO)cc2)on1`, the MIC in the assay on Pseudomonas aeruginosa [3], against Pseudomonas aeruginosa [4], against Klebsiella pneumoniae, against Pseudomonas aeruginosa [5] and with Escherichia coli [6] was more than 128 µg/mL each time. The compound also had a pIC50 in assay [7] of 5.85.

`CC(O)c1nccn1Cc1ccc(Cl)cc1` (racemic): the pIC50 was 3.67 in assay [7] and 4.40 in assay [8].

As for `OCc1nccn1CCCc1ccc(Cl)cc1`, the pIC50 in [7] is 3.97; in assay [8], 4.44.

As for `C[C@H](O)c1nccn1Cc1cc(C#Cc2ccc(OC3CN(CCO)C3)cc2)on1`, the MIC came out at 16 µg/mL in the assay with Pseudomonas aeruginosa [3]; 4 µg/mL (≈ 9.79 µM) against Pseudomonas aeruginosa [4]; 4 µg/mL (≈ 9.79 µM) in the assay with Klebsiella pneumoniae; 4 µg/mL (≈ 9.79 µM) in the assay with Pseudomonas aeruginosa [5]; 4 µg/mL (≈ 9.79 µM) against Escherichia coli [6]. Moreover, in assay [7], the pIC50 is 8.35.

Regarding `NCC(=O)Nc1cccc(OC(F)(F)F)c1`, the pIC50 is 4.38 in assay [9] and 4.26 in assay [8].

As for `CC(O)c1nccn1CCCc1ccc(-c2ccccc2)cc1` (racemic), the values for the pIC50 in [7] and in [8] were 6.88 and 7.57, respectively.

For `C[C@H](O)c1nccn1Cc1cc(C#Cc2ccc(OCCCNCCN)cc2)on1`, the MIC with Pseudomonas aeruginosa [3] is 16 µg/mL; in the assay with Pseudomonas aeruginosa [4], 4 µg/mL (≈ 9.77 µM); against Klebsiella pneumoniae it was 32 µg/mL (≈ 78.1 µM); against Pseudomonas aeruginosa [5] it was 2 µg/mL (≈ 4.88 µM); in the assay on Escherichia coli [6], 2 µg/mL (≈ 4.88 µM). This compound also showed a pIC50 in [7] of 8.15.

In assay [9], `N[C@H](CO)C(=O)N1CCC(Cc2ccc(-c3ccccc3)cc2)CC1` had a pIC50 of 6.18.

In assay [9], `N[C@H](CO)C(=O)N1CCC(Cc2ccccc2)CC1` gave a pIC50 of 4.60.

On to `CC(O)c1nccn1Cc1ccc(-c2ccccc2)cc1` (racemic), for which the negative-log IC50 (pIC50) is 5.40 in [7] and 6.26 in assay [8].

Turning to `CC(O)c1nccn1CCCc1ccc(C#Cc2ccccc2)cc1` (racemic), the pIC50 in assay [7] is 6.79; in assay [8], 7.28.

`C[C@H](O)c1nccn1Cc1cc(C#Cc2ccc(CCCO)cc2)on1`: the MIC was more than 64 µg/mL in the assay with Pseudomonas aeruginosa [3]; 16 µg/mL (≈ 45.5 µM) against Pseudomonas aeruginosa [4]; 2 µg/mL (≈ 5.69 µM) against Klebsiella pneumoniae; 32 µg/mL (≈ 91.1 µM) against Pseudomonas aeruginosa [5]; 0.5 µg/mL (≈ 1.42 µM) against Escherichia coli [6]. Besides, the pIC50 in [7] was 8.39.

`O=C(NO)[C@@H](Cc1ccc2ccccc2c1)NS(=O)(=O)c1ccc2ccccc2c1`: the pIC50 in assay [1] is 7.01; against Stromelysin-1, 6.38; in assay [2], 7.76.

For the compound `CC(O)c1nccn1CCc1ccc(Cl)cc1` (racemic), the values for the pIC50 in assay [7] and in [8] were 3.58 and 4.17, respectively.

`N[C@H](CO)C(=O)N1CCC(Cc2ccc(CCc3ccccc3)cc2)CC1` gave a pIC50 in assay [9] of 5.34.

With `CC(O)c1nccn1CCCc1ccc(Cl)cc1` (racemic), the pIC50 in assay [7] was 4.98; in assay [8] it was 6.09.

Take `CC(O)c1nccn1Cc1cc(-c2ccccc2)on1` (racemic): the pIC50 in [7] was 6.05; in assay [8], 6.90.

Take `CS(=O)(=O)CC[C@@H](N)C(=O)Nc1cccc(OC(F)(F)F)c1`: the results for the pIC50 in assay [9] and in assay [8] were 5.00 and 5.05, respectively.

On to `N[C@H](CC(=O)O)C(=O)Nc1cccc(OC(F)(F)F)c1`, for which the pIC50 in assay [9] is 4.95; in [8], 5.24.

In the case of `C[C@H](O)c1nccn1Cc1cc(C#Cc2ccc(OCCCNC3COC3)cc2)on1`, the MIC in the assay with Pseudomonas aeruginosa [3] came out at 64 µg/mL; with Pseudomonas aeruginosa [4], 8 µg/mL (≈ 18.9 µM); in the assay on Klebsiella pneumoniae, 1 µg/mL (≈ 2.37 µM); against Pseudomonas aeruginosa [5], 8 µg/mL (≈ 18.9 µM); in the assay with Escherichia coli [6], 1 µg/mL (≈ 2.37 µM). In assay [7], the pIC50 was 8.33.

As to `NC[C@@H](N)C(=O)Nc1cccc(OC(F)(F)F)c1`, the pIC50 in [9] was 4.44; in assay [8], 4.40.

Take `OC(COc1ccc(Cl)cc1)Cn1ccnc1` (racemic): the pIC50 in assay [7] is 3.33; in assay [8], 3.59.

Turning to `OC(COc1ccccc1)Cn1ccnc1` (racemic), the pIC50 is 2.95 in [7] and less than 2.70 in assay [8].

In the case of `Clc1ccc(OCCCn2ccnc2)cc1`, the pIC50 in [7] was 3.84; in assay [8] it was 3.93.

Take `CC(O)c1nccn1Cc1cc(C#Cc2ccccc2)on1` (racemic): the MIC is more than 128 µg/mL with Pseudomonas aeruginosa [3]; 64 µg/mL (≈ 218 µM) in the assay with Pseudomonas aeruginosa [4]; 32 µg/mL (≈ 109 µM) with Klebsiella pneumoniae; more than 128 µg/mL in the assay with Pseudomonas aeruginosa [5]; 16 µg/mL (≈ 54.5 µM) in the assay with Escherichia coli [6]. Also, the figures for the pIC50 in assay [7] and in [8] were 7.32 and 7.69, respectively.

A word on the pIC50: it is the IC50 on a negative log10 scale, so that one unit is a factor of ten. A lower pIC50 goes with a high IC50. Usually MIC stands for the least concentration at which growth counts as inhibited.
